Active and inactive are the calls of the source. The rule behind the calls is not given here.
Tests used:
HL-60 [1] = test: Induction of apoptosis in human HL60 cells assessed as accumulation of cells in subG1 phase at 80 uM after 6 hrs by FACS method; type: functional
HL-60 [2] = test: Induction of apoptosis in human HL60 cells assessed as DNA fragmentation at 80 uM after 6 hrs; type: functional, cell-based
HL-60 [3] = test: Antiproliferative activity against human HL60 cells after 72 hrs; type: functional; conditions: HL-60, 72 h
HL-60 [4] = test: Induction of apoptosis in human HL60 cells at 80 uM after 6 hrs by fluorescence microscopy; type: functional

GI50 (HL-60 [3]) [µM]	SMILES	Activity (HL-60 [1]) [%]	Activity (HL-60 [2])	Activity (HL-60 [4]) [%]
24.4	CCO/N=C1\CC[C@]2(C)C3C(=O)C=C4[C@@H]5C[C@](C)(C(=O)O)CC[C@]5(C)CC[C@@]4(C)[C@]3(C)CC[C@H]2C1(C)C (stereo partly drawn)	68.7	Active	59.7
59.6	CC1(C)C(=O)CC[C@]2(C)C3C(=O)C=C4[C@@H]5C[C@](C)(C(=O)O)CC[C@]5(C)CC[C@@]4(C)[C@]3(C)CC[C@@H]12 (stereo partly drawn)			28.5
63.2	CC1(C)[C@@H](O)CC[C@]2(C)C3C(=O)C=C4[C@@H]5C[C@](C)(C(=O)O)CC[C@]5(C)CC[C@@]4(C)[C@]3(C)CC[C@@H]12 (stereo partly drawn)	12.7	inactive	24.9
63	CC1(C)/C(=N/O)CC[C@]2(C)C3C(=O)C=C4[C@@H]5C[C@](C)(C(=O)O)CC[C@]5(C)CC[C@@]4(C)[C@]3(C)CC[C@@H]12 (stereo partly drawn)			24.5
36.1	CO/N=C1\CC[C@]2(C)C3C(=O)C=C4[C@@H]5C[C@](C)(C(=O)O)CC[C@]5(C)CC[C@@]4(C)[C@]3(C)CC[C@H]2C1(C)C (stereo partly drawn)	70.9	Active	60.2
57.7	CCC(=O)O/N=C1\CC[C@]2(C)C3C(=O)C=C4[C@@H]5C[C@](C)(C(=O)O)CC[C@]5(C)CC[C@@]4(C)[C@]3(C)CC[C@H]2C1(C)C (stereo partly drawn)			27.7
19	CCCO/N=C1\CC[C@]2(C)C3C(=O)C=C4[C@@H]5C[C@](C)(C(=O)OC)CC[C@]5(C)CC[C@@]4(C)[C@]3(C)CC[C@H]2C1(C)C (stereo partly drawn)			4.9
20.6	CCCO/N=C1\CC[C@]2(C)C3C(=O)C=C4[C@@H]5C[C@](C)(C(=O)O)CC[C@]5(C)CC[C@@]4(C)[C@]3(C)CC[C@H]2C1(C)C (stereo partly drawn)	80.3	Active	87.3
19.1	CCO/N=C1\CC[C@]2(C)C3C(=O)C=C4[C@@H]5C[C@](C)(C(=O)OC)CC[C@]5(C)CC[C@@]4(C)[C@]3(C)CC[C@H]2C1(C)C (stereo partly drawn)			8.6
58.8	CC(=O)O/N=C1\CC[C@]2(C)C3C(=O)C=C4[C@@H]5C[C@](C)(C(=O)O)CC[C@]5(C)CC[C@@]4(C)[C@]3(C)CC[C@H]2C1(C)C (stereo partly drawn)			19.1

— ChEMBL document CHEMBL1149621, “The synthesis of 18beta-glycyrrhetinic acid derivatives which have increased antiproliferative and apoptotic effects in leukemia cells” (2007)
